Experimental findings from paper PMC5954419 (Biochemistry, 2017) are described below.

This assay deals with T1, MGST1 (unactivated) (Rattus norvegicus, UniProt P08011).
T1 sequence (P08011 2-155): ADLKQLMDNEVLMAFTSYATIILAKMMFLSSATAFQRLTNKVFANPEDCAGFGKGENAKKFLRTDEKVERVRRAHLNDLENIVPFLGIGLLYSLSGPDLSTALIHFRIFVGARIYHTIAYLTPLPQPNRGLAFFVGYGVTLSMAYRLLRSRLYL
As to the kind of experiment: steady-state spectrophotometric product formation. The format is biochemical. The settings on record: 5 mM GSH, 5 °C, pH 6.5, 0.1 M potassium phosphate, 0.1% Triton X-100; unactivated enzyme.

In the case of `O=[N+]([O-])c1ccc(Cl)c([N+](=O)[O-])c1` [CDNB, 1-Chloro-2,4-dinitrobenzene], the Km (usually the substrate concentration at which the rate is half of its maximum) is 11 ± 2 µM.
